Source: patent publication US5574010A, “Treatment of pancreatic tumors with peptide YY and analogs thereof” (The Regents of The University of California, priority 1994, dated 1996)

Assays:
PANC-1 = assay: MTT viability assay, in vitro anti-proliferative activity; type: cell-based, human; conditions: 36 hours, vs saline control
Description: (§1) PANC-1 and MiaPaCa-2 are two human pancreatic adenocarcinomas cancer cell lines which are available commercially from suppliers such as American Type Culture Collection, ATCC (Rockville, Md.). For this example, the two tumor cells were grown in RPMI-1640 culture media supplemented with 10% fetal bovine serum, 29.2 mg/L of glutamine, 25 μg gentamicin, 5 ml penicillin, streptomycin, and fungizone solution (JRH Biosciences, Lenexa, Kans.) at 37° Celsius in a NAPCO water jacketed 5 % CO2 incubator. All cell lines were detached with 0.25 % trypsin (Clonetics, San Diego, Calif.) once to twice a week when a confluent monolayer of tumor cells was achieved. Cells were pelleted for 7 minutes at 500 g in a refrigerated centrifuge at 4 ° Celsius, and resuspended in trypsin free fortified RPMI 1640 culture media. Viable cells were counted on a hemocytometer slide with trypan blue.
(§2) Ten thousand, 20,000, 40,000 and 80,000 cells of each type were added to 96 well microculture plates (Costar, Cambridge, Mass.) in a total volume of 200 μl of culture media per well. Cells were allowed to adhere for 24 hours prior to addition of the PYY or Analog #1 peptides. Fresh culture media was exchanged prior to addition of peptides. In vitro incubation of pancreatic tumor cells with either PYY or Analog #1 was continued for 6 hours and 36 hours in length. PYY was added to cells at doses of 250 pmol, 25 pmol, and 2.5 pmol per well (N =14). Analog #1 was added to cells cultures at doses of 400 pmol, 40 pmol, and 4 pmol per well. Control wells received 2 μl of 0.9% saline to mimic the volume and physical disturbance upon adhered tumor cells. Each 96 well plate contained 18 control wells to allow for comparison within each plate during experimentation. Ninety-six (96) well plates were repeated 6 times with varying concentrations of PYY and Analog #1 in both the PANC-1 and MiaPaCa-2 cells.
(§3) At the end of the incubation period, 3-(4,5-dimethylthiazolyl-2-yl)-2,5-diphenyltetrazolium Bromide, MTr tetrazolium bromide (Sigma, St. Louis, Mo.) was added to fresh culture media at 0.5 mg/ml. Culture media was exchanged and tumor cells were incubated for 4 hours with MTT tetrazolium bromide at 37° Celsius. At the end of incubation, culture media was aspirated. Formazon crystal precipitates were dissolved in 200 μl of dimethyl sulfoxide (Sigma, St. Louis, Mo.). Quantitation of solubilized formazon was performed by obtaining absorption readings at […] wavelength on an ELISA reader (Molecular Devices, Menlo Park, Calif.). The MTT assay measures mitochondrial NADH dependent dehydrogenase activity, and it has been among the most sensitive and reliable method to quantitative in vitro chemotherapy responses of tumor cells. (Alley, M. C., Scudiero, D. A., Monk, A., Hursey, M. L., Dzerwinski, M. J., Fine, D. L., Abbott, B. J., Mayo, J. G., Shoemaker, R. H. and Boyd, M. R., Feasibility of drug screening with panels of human tumor cell lines using a microculture tetrazolium assay Cancer Res., 48:589-601, 1988; Carmichael, J., DeGraff, W. G., Gazdar, A. F., Minna, J. D. and Mitchell, J. B., Evaluation of a tetrazolium-based semiautomated colorimetric assay: Assessment of chemosensitivity testing. Cancer Res., 47:936-942, 1987; McHale, A. P., McHale, L., Use of a tetrazolium based colorimetric assay in assessing photoradiation therapy in vitro. Cancer Lett., 41:315-321, 1988; and Saxton, R. E., Huang, M. Z., Plante D., Fetterman, H. F., Lufkin, R. B., Soudant, J., Castro, D. J., Laser and daunomycin chemophototherapy of human carcinoma cells. J. Clin. Laser Med. and Surg., 10(5):331-336, 1992.)
(§4) Analysis of absorption readings at 550 nm were analyzed by grouping wells of the same test conditions and verifying differences occurring between control and the various peptide concentration treatments by one-way ANOVA. Once statistical significance was achieved, P <0.05, each test group was compared to its paired control group by Student's T-test within each 96 well plate. […]

MiaPaCa-2 = assay: as above; type: cell-based, human; conditions: Mia PaCa-2, 36 hours, vs saline control
Description: as §1, §2, §3, §4

human Mia PaCa-2 cells = assay: In vivo growth inhibition of orthotopically transplanted pancreatic ductal adenocarcinoma; conditions: male athymic mice, orthotopic Mia PaCa-2; 200 pmol/kg/hr via mini-osmotic pumps for four weeks; vs saline control
Description: The human pancreatic ductal adenocarcinoma Mia Paca-2 was examined for in vivo growth inhibition by peptide YY and Analog #1. Seventy thousand to 100,000 human Mia PaCa-2 cells were orthotopically transplanted into 48 male athymic mice. After one week, the animals were treated with either PYY or Analog #1 at 200 pmol/kg/hr via mini-osmotic pumps for four weeks. The paired cultures received saline. At sacrifice, both tumor size and mass were measured. Control mice had significant human cancer growth within the pancreas as evidenced by histologic sections. At 9 weeks, ninety percent (90%) of control mice had substantial metastatic disease.

With “PYY: 36 amino acid residue peptide amide isolated originally from porcine intestine; the species of the PYY tested is not stated [Peptide YY]” the “Percent Reduction in Tumor Growth(%) Compared to Control” value (PANC-1; 2.5 pmol per well) was 9.8%, the “Percent Reduction in Tumor Growth(%) Compared to Control” value (PANC-1; 25 pmol per well) was 14.7% and the “Percent Reduction in Tumor Growth(%) Compared to Control” value (PANC-1; 250 pmol per well) was 25.7%. For the same substance, the “Percent Reduction in Tumor Growth(%) Compared to Control” value (MiaPaCa-2; 2.5 pmol per well) was 0.5%, the “Percent Reduction in Tumor Growth(%) Compared to Control” value (MiaPaCa-2; 25 pmol per well) was 12.8% and the “Percent Reduction in Tumor Growth(%) Compared to Control” value (MiaPaCa-2; 250 pmol per well) was 15.4%. It also gave a Tumor mass decreased (human Mia PaCa-2 cells) of 27%.
